Laboratory results reported in patent US12577213B2 (NINGBO COMBIREG PHARMACEUTICAL TECHNOLOGY CO., LTD., priority 2020, dated 2026).
Where two headings read alike, the source gives them in different places. Blank lines part the entries; values can stand above or below the compound they belong to.

Columns and labels:
[1] = Liver microsomes stability; format: in vitro ADME, human; conditions: 1 μM compound, 1 mg/mL human liver microsomes, 1 mM NADPH; for half-life at 1 μM: read-out: T½ of HLM
Procedure: The compound to be tested with final concentration of 1 μM was incubated with 1 mg/mL of human liver microsomes and 1 mM of NADPH, and a group without NADPH was set as a negative control. The reaction mixture was quenched with methanol at five time points of 0, 5, 15, 30 and 60 min, respectively, then centrifuged at 2500 rpm for 20 min to precipitate proteins, and the resulting supernatant was analyzed by LC-MS/MS. The data was analyzed and the k value and half-life T1/2 was calculated, T1/2(min)=0.693/k.
Wherein, compounds a, b and c are active compounds disclosed in patent No. ZL201610154581.3.

[2] = test system: LOX-IMVI (melanoma); experiment: NCI method SRB growth inhibition, LOX-IMVI; format: cell-based; conditions: Homo sapiens, treated 48 hours, SRB stain
Source text: (§1) In this embodiment, the method of National Cancer Institute (NCI) was used to evaluate the anti-tumor activity of the embodiment compounds in the present disclosure. Nine representative cell lines were selected for activity evaluation, including A549 (non-small cell lung cancer), HCT116 (colon cancer), SF295 (central nervous system tumor), LOX-IMVI (melanoma), 786-0 (renal cancer), K562 (leukemia), PC-3 (prostate cancer), OVCAR-3 (ovarian cancer) and HS 578T (breast cancer).
(§2) The specific method was as follows: 60 tumor cell lines of 9 kinds of human cancers were used to evaluate the inhibitory activity of the compound in vitro. A test group, a parallel control group and a vehicle control group were set up. The parallel control group was fixed immediately before the compound was added; the cells in the test group were fixed after being treated with the compound for 48 hours; the vehicle control group was fixed after an equal volume of complete medium was added for 48 hours. Sulforhodamine B (SRB) was used to stain, and the OD value was measured at a wavelength of 515 nm. The specific calculation method was as follows: the OD value of the parallel control group was recorded as Tz, the OD value of the vehicle control group was recorded as C, and the OD value of the test group was recorded as (Ti). If Ti≥Tz, it means that the cells still grow after the drug was added, and the growth rate %=[(Ti−Tz)/(C−Tz)]×100; if Ti<Tz, it means that the cells are killed after the drug was added, and the growth rate %=[(Ti−Tz)/Tz]×100. Three parameters were used to evaluate the anti-tumor activity of compounds in this method: 50% growth inhibitory concentration (GI50): i.e. the compound concentration at [(Ti−Tz)/(C−Tz)]×100=50; complete growth inhibitory concentration (TGI): the compound concentration at Ti=Tz; the drug concentration required to kill 50% of the cells (LC50): i.e. the compound concentration at [(Ti−Tz)/Tz]×100=−50.
(§3) The inhibitory activities of the embodiment compounds on nine representative tumor cell lines were listed in detail in Table 1. Wherein, the GI50 value means “50% growth inhibition rate”, that is, the concentration of the compound to be tested when it can inhibit […] of cell growth; “ND” means not detected.

[3] = test system: HS 578T (breast cancer); experiment: NCI method SRB growth inhibition, HS 578T; format: cell-based; conditions: Homo sapiens, HS578T, treated 48 hours, SRB stain
Source text: as §1, §2, §3

[4] = test system: PC-3 (prostate cancer); experiment: NCI method SRB growth inhibition, PC-3; format: cell-based; conditions: Homo sapiens; PC-3, treated 48 hours, SRB stain
Source text: as §1, §2, §3

[5] = test system: K562 (leukemia); experiment: NCI method SRB growth inhibition, K562; format: cell-based; conditions: Homo sapiens; K562, treated 48 hours, SRB stain
Source text: as §1, §2, §3

[6] = test system: SF295 (central nervous system tumor); experiment: NCI method SRB growth inhibition, SF295; format: cell-based; conditions: Homo sapiens, SF-295; SF295, treated 48 hours, SRB stain
Source text: as §1, §2, §3

[7] = test system: OVCAR-3 (ovarian cancer); experiment: NCI method SRB growth inhibition, OVCAR-3; format: cell-based; conditions: Homo sapiens; OVCAR-3, treated 48 hours, SRB stain
Source text: as §1, §2, §3

[8] = test system: HCT116 (colon cancer); experiment: NCI method SRB growth inhibition, HCT116; format: cell-based; conditions: Homo sapiens, HCT-116; HCT116, treated 48 hours, SRB stain
Source text: as §1, §2, §3

[9] = test system: A549 (non-small cell lung cancer); experiment: NCI method SRB growth inhibition, A549; format: cell-based; conditions: Homo sapiens; A549, treated 48 hours, SRB stain
Source text: as §1, §2, §3

[10] = test system: 786-0 (renal cancer); experiment: NCI method SRB growth inhibition, 786-0; format: cell-based; conditions: Homo sapiens; 786-0, treated 48 hours, SRB stain
Source text: as §1, §2, §3

microsomal CLint at 1 μM [1]: 4.3 µL/min/mg
half-life at 1 μM ([1]; human, human liver microsomes): 161 min
SMILES: [2H]C([2H])([2H])Oc1cc(C(=O)Nc2cc3c(cc2Oc2cc(C)cc(C)c2)C(=O)N[C@@H](CC(=O)N(C)OC)C(=O)N3)c(Br)c(OC([2H])([2H])[2H])c1OC([2H])([2H])[2H] [Compound 30]
GI50 [2]: < 5 nM
GI50 [3]: < 5 nM
GI50 [4]: < 5 nM
GI50 [5]: 1.6 nM
GI50 [6]: 11.6 nM
GI50 [7]: < 5 nM
GI50 [8]: 7.8 nM
GI50 [9]: 4.9 nM
GI50 [10]: 8.6 nM

microsomal CLint at 1 μM [1]: 26.9 µL/min/mg
half-life at 1 μM ([1]; human, human liver microsomes): 25.8 min
SMILES: [2H]C([2H])([2H])c1cc(Oc2cc3c(cc2NC(=O)c2cc(OC)c(OC)c(OC)c2Cl)NC(=O)[C@H](CC(=O)N(CC)CC)NC3=O)cc(C([2H])([2H])[2H])c1 [Compound 23, (S)-2-chloro-N-[3-[2-(diethylamino)-2-oxoethyl]-7-[3,5-bis(trideuteromethyl)phenoxy]-2,5-dioxo-2,3,4,5-tetrahydro-1H-benzo[e][1,4]diazepin-8-yl]-3,4,5-trimethoxybenzamide]
GI50 [2]: < 5 nM
GI50 [3]: 24.9 nM
GI50 [4]: 6.1 nM
GI50 [5]: < 5 nM
GI50 [6]: 10.5 nM
GI50 [7]: 6.6 nM
GI50 [8]: < 5 nM
GI50 [9]: 11.6 nM
GI50 [10]: 67.5 nM

microsomal CLint at 1 μM [1]: 34.5 µL/min/mg
half-life at 1 μM ([1]; human, human liver microsomes): 20.1 min
SMILES: [2H]C([2H])([2H])Oc1cc(C(=O)Nc2cc3c(cc2Oc2cc(C)cc(C)c2)C(=O)N(C)[C@@H](CC(=O)N2CCC(F)(F)CC2)C(=O)N3)c(Cl)c(OC([2H])([2H])[2H])c1OC([2H])([2H])[2H] [Compound 17, (S)-2-chloro-N-[3-[2-(4,4-difluoropiperidin-1-yl)-2-oxoethyl]-7-(3,5-dimethylphenoxy)-4-methyl-2,5-dioxo-2,3,4,5-tetrahydro-1H-benzo[e][1,4]diazepin-8-yl]-3,4,5-tris(trideuteromethoxy)benzamide]
GI50 [2]: < 5 nM
GI50 [3]: 5.6 nM
GI50 [4]: < 5 nM
GI50 [5]: < 5 nM
GI50 [6]: 8 nM
GI50 [7]: 8.4 nM
GI50 [8]: 44.9 nM
GI50 [9]: 15.8 nM
GI50 [10]: 10 nM

microsomal CLint at 1 μM [1]: 11.7 µL/min/mg
half-life at 1 μM ([1]; human, human liver microsomes): 59.2 min
SMILES: [2H]C([2H])([2H])Oc1cc(C(=O)Nc2cc3c(cc2Oc2cc(C)cc(C)c2)C(=O)N[C@@H](CC(=O)N(C)OC)C(=O)N3)c(Cl)c(OC([2H])([2H])[2H])c1OC([2H])([2H])[2H] [Compound 35]
GI50 [2]: 5.6 nM
GI50 [3]: 16 nM
GI50 [4]: < 5 nM
GI50 [5]: < 5 nM
GI50 [6]: 29 nM
GI50 [7]: < 5 nM
GI50 [8]: 9.8 nM
GI50 [9]: < 5 nM
GI50 [10]: 21.1 nM

microsomal CLint at 1 μM [1]: 29.8 µL/min/mg
half-life at 1 μM ([1]; human, human liver microsomes): 23.3 min
SMILES: [2H]c1c(Oc2cc3c(cc2NC(=O)c2cc(OC)c(OC)c(OC)c2Cl)NC(=O)[C@H](CC(=O)N(CC)CC)NC3=O)c([2H])c(C([2H])([2H])[2H])c([2H])c1C([2H])([2H])[2H] [Compound 25, (S)-2-chloro-N-[3-[2-(diethylamino)-2-oxoethyl]-7-[3,5-bis(trideuteromethyl)-2,4,6-trideuterophenoxy]-2,5-dioxo-2,3,4,5-tetrahydro-1H-benzo[e][1,4]diazepin-8-yl]-3,4,5-trimethoxybenzamide]
GI50 [2]: < 5 nM
GI50 [3]: 30.3 nM
GI50 [4]: 5 nM
GI50 [5]: < 5 nM
GI50 [6]: 14.2 nM
GI50 [7]: 8.3 nM
GI50 [8]: < 5 nM
GI50 [9]: 19.1 nM
GI50 [10]: 15.8 nM

Continued, compound first:

SMILES: [2H]C([2H])([2H])Oc1cc(C(=O)Nc2cc3c(cc2Oc2cc(C)cc(C)c2)C(=O)N(C)[C@@H](CC(=O)N(OC([2H])([2H])[2H])C([2H])([2H])[2H])C(=O)N3)c(Br)c(OC([2H])([2H])[2H])c1OC([2H])([2H])[2H] [Compound 34]
half-life at 1 μM [1]: 72.2 min
microsomal CLint at 1 μM ([1]; human, human liver microsomes): 9.6 µL/min/mg
GI50 [2]: < 5 nM
GI50 [3]: < 5 nM
GI50 [4]: < 5 nM
GI50 [5]: < 5 nM
GI50 [6]: < 5 nM
GI50 [7]: < 5 nM
GI50 [8]: < 5 nM
GI50 [9]: < 5 nM
GI50 [10]: < 5 nM

SMILES: [2H]c1c(C)c([2H])c(Oc2cc3c(cc2NC(=O)c2cc(OC)c(OC)c(OC)c2Cl)NC(=O)[C@H](CC(=O)N(CC)CC)NC3=O)c([2H])c1C [Compound 24, (S)-2-chloro-N-[3-[2-(diethylamino)-2-oxoethyl]-7-(3,5-dimethyl-2,4,6-trideuterophenoxy)-2,5-dioxo-2,3,4,5-tetrahydro-1H-benzo[e][1,4]diazepin-8-yl]-3,4,5-trimethoxybenzamide]
microsomal CLint at 1 μM [1]: 28.4 µL/min/mg
half-life at 1 μM ([1]; human, human liver microsomes): 24.4 min
GI50 [2]: 65.8 nM
GI50 [3]: 188 nM
GI50 [4]: 39.5 nM
GI50 [5]: 25.5 nM
GI50 [6]: 135 nM
GI50 [7]: 87.6 nM
GI50 [8]: 123 nM
GI50 [9]: 207 nM
GI50 [10]: 276 nM

SMILES: [2H]C([2H])([2H])Oc1cc(C(=O)Nc2cc3c(cc2Oc2cc(C)cc(C)c2)C(=O)N(C)[C@@H](CC(=O)N(OC([2H])([2H])[2H])C([2H])([2H])[2H])C(=O)N3)c(Cl)c(OC([2H])([2H])[2H])c1OC([2H])([2H])[2H] [Compound 39]
microsomal CLint at 1 μM [1]: 13.7 µL/min/mg
half-life at 1 μM ([1]; human, human liver microsomes): 50.6 min
GI50 [2]: < 5 nM
GI50 [3]: 6 nM
GI50 [4]: < 5 nM
GI50 [5]: < 5 nM
GI50 [6]: 12 nM
GI50 [7]: < 5 nM
GI50 [8]: 7 nM
GI50 [9]: < 5 nM
GI50 [10]: 9 nM

SMILES: [2H]C([2H])([2H])Oc1cc(C(=O)Nc2cc3c(cc2Oc2cc(C)cc(C)c2)C(=O)N(C)[C@@H](CC(=O)N2CCN(C)CC2)C(=O)N3)c(Br)c(OC([2H])([2H])[2H])c1OC([2H])([2H])[2H] [Compound 28]
half-life at 1 μM [1]: 41.8 min
microsomal CLint at 1 μM ([1]; human, human liver microsomes): 16.8 µL/min/mg
GI50 [2]: < 5 nM
GI50 [3]: < 5 nM
GI50 [4]: < 5 nM
GI50 [5]: < 5 nM
GI50 [6]: 18 nM
GI50 [7]: < 5 nM
GI50 [8]: < 5 nM
GI50 [9]: < 5 nM
GI50 [10]: 66 nM
